Measurements as given in PubChem BioAssay AID248 (DTP/NCI, 2004).
Several values for one entry are separate records, joined by “and”; a condition that tells them apart may be missing. Equal entries are not always repeated. Inconclusive results and toxic doses are left out. No stated cut-off is given here; in the data, active means T/C of 150% or more; inactive means T/C below 125%.

Test system: L1210 leukemia ip in BDF1 mice, survival T/C
Assay: NCI In Vivo Anticancer Drug Screen. Data for tumor model L1210 Leukemia (intraperitoneal) in B6D2F1 (BDF1) mice
Conditions: endpoint: mean survival time, higher = longer survival
Method in brief: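 Tumor was transplanted into mice, which were then dosed with test compound or vehicle alone. Survival was recorded for each group, and the treated figure was expressed relative to the control figure.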

[1] = dose: 50.0 mg/kg/injection, schedule: Q01DX009 (ip), vehicle: Klucel (hydroxypropylcellulose) (HPC)
[2] = dose: 100.0 mg/kg/injection, schedule: Q01DX009 (ip), vehicle: Klucel (hydroxypropylcellulose) (HPC)
[3] = dose: 100.0 mg/kg/injection, schedule: Q04DX003 (ip), vehicle: saline
[4] = dose: 200.0 mg/kg/injection, schedule: Q04DX003 (ip), vehicle: saline
[5] = dose: 400.0 mg/kg/injection, schedule: Q04DX003 (ip), vehicle: saline
[6] = dose: 50.0 mg/kg/injection, schedule: Q01DX009 (ip), vehicle: saline
[7] = dose: 100.0 mg/kg/injection, schedule: Q01DX009 (ip), vehicle: saline
[8] = dose: 50.0 mg/kg/injection, schedule: Q01DX009 (ip), vehicle: saline with Tween-80
[9] = dose: 100.0 mg/kg/injection, schedule: Q01DX009 (ip), vehicle: saline with Tween-80
[10] = dose: 100.0 mg/kg/injection, schedule: Q04DX002 (ip), vehicle: saline with Tween-80
[11] = dose: 200.0 mg/kg/injection, schedule: Q04DX002 (ip), vehicle: saline with Tween-80
[12] = dose: 100.0 mg/kg/injection, schedule: Q04DX003 (ip), vehicle: Klucel (hydroxypropylcellulose) (HPC)
[13] = dose: 200.0 mg/kg/injection, schedule: Q01DX009 (ip), vehicle: Klucel (hydroxypropylcellulose) (HPC)
[14] = dose: 200.0 mg/kg/injection, schedule: Q04DX003 (ip), vehicle: Klucel (hydroxypropylcellulose) (HPC)
[15] = dose: 400.0 mg/kg/injection, schedule: Q01DX009 (ip), vehicle: Klucel (hydroxypropylcellulose) (HPC)
[16] = dose: 400.0 mg/kg/injection, schedule: Q04DX003 (ip), vehicle: Klucel (hydroxypropylcellulose) (HPC)
[17] = dose: 50.0 mg/kg/injection, schedule: Q01DX001 (ip), vehicle: saline
[18] = dose: 100.0 mg/kg/injection, schedule: Q01DX001 (ip), vehicle: saline
[19] = dose: 200.0 mg/kg/injection, schedule: Q01DX001 (ip), vehicle: saline
[20] = dose: 400.0 mg/kg/injection, schedule: Q01DX001 (ip), vehicle: saline
[21] = dose: 200.0 mg/kg/injection, schedule: Q01DX009 (ip), vehicle: saline with Tween-80
[22] = dose: 400.0 mg/kg/injection, schedule: Q01DX009 (ip), vehicle: saline with Tween-80
[23] = dose: 100.0 mg/kg/injection, schedule: Q01DX001 (ip), vehicle: Klucel (hydroxypropylcellulose) (HPC)
[24] = dose: 200.0 mg/kg/injection, schedule: Q01DX001 (ip), vehicle: Klucel (hydroxypropylcellulose) (HPC)
[25] = dose: 400.0 mg/kg/injection, schedule: Q01DX001 (ip), vehicle: Klucel (hydroxypropylcellulose) (HPC)
[26] = dose: 200.0 mg/kg/injection, schedule: Q01DX009 (ip), vehicle: saline

Measured: T/C

Nc1ccc2c(c1)OCO2
inactive: dose: 90.0 mg/kg/injection, schedule: Q04DX003 (sc), vehicle: olive oil, sesame oil, peanut oil 106 % of control | dose: 100.0 mg/kg/injection, schedule: Q01DX009 (sc), vehicle: olive oil, sesame oil, peanut oil 107 % of control | dose: 100.0 mg/kg/injection, schedule: Q04DX003 (sc), vehicle: olive oil, sesame oil, peanut oil 101 % of control | dose: 133.0 mg/kg/injection, schedule: Q04DX003 (sc), vehicle: olive oil, sesame oil, peanut oil 119 % of control | dose: 200.0 mg/kg/injection, schedule: Q01DX009 (sc), vehicle: olive oil, sesame oil, peanut oil 112 % of control | dose: 400.0 mg/kg/injection, schedule: Q04DX003 (sc), vehicle: olive oil, sesame oil, peanut oil 108 % of control

CCc1ccc(NC(=O)c2c(Br)c(Br)c(Br)c(Br)c2C(=O)O)cc1
inactive: dose: 25.0 mg/kg/injection, schedule: Q01DX009 (ip), vehicle: Klucel (hydroxypropylcellulose) (HPC) 96 % of control | [1] 104 % of control | [2] 101 % of control and 107 % of control

CCOC(=O)c1cnc(SCC)nc1N
inactive: [3] 101 % of control | [4] 98 % of control | [5] 103 % of control

COc1ccc(C(=O)NC2CCC2)cc1
inactive: dose: 25.0 mg/kg/injection, schedule: Q01DX009 (ip), vehicle: saline 100 % of control | [6] 108 % of control | [7] 100 % of control

N#CCC(=O)NCc1ccco1
inactive: [8] 106 % of control | [9] 103 % of control | [10] 104 % of control | [11] 114 % of control

CCCCCCCC(=O)CCC
inactive: [2] 108 % of control | [12] 98 % of control | [13] 104 % of control | [14] 89 % of control | [15] 102 % of control | [16] 89 % of control

O=C(Nc1ccc2c3c(ccc(NC(=O)c4ccccc4)c13)C=C2)c1ccccc1
inactive: [17] 102 % of control | [18] 100 % of control | [19] 100 % of control | [20] 100 % of control

CC1=CC(c2ccccc2O)C(=C(C)C)CC1 (stereo not given)
inactive: [1] 96 % of control | [2] 93 % of control | [13] 89 % of control

O=C1OC(c2ccccc2)(c2ccccn2)c2ccccc21 (stereo not given)
inactive: [9] 90 % of control | [21] 92 % of control | [22] 88 % of control

COc1ccc(C)cc1NC(=O)OCCOc1ccc(Cl)c(C)c1
inactive: [8] 93 % of control | [9] 90 % of control | [21] 93 % of control

Cc1c(C)c([N+](=O)[O-])c(C)c(C)c1[N+](=O)[O-]
inactive: [2] 91 % of control | [12] 96 % of control | [13] 98 % of control | [14] 100 % of control | [15] 93 % of control | [16] 101 % of control

CC(C)CCOc1ccc(C(N)=S)c2ccccc12
inactive: [23] 112 % of control | [24] 112 % of control | [25] 102 % of control

O=C1CCCCC1C(=O)C(F)(F)C(F)(F)C(F)(F)F (stereo not given)
inactive: dose: 90.0 mg/kg/injection, schedule: Q01DX Z (ip), vehicle: methylcellulose (MC) 97 % of control | dose: 150.0 mg/kg/injection, schedule: Q01DX Z (ip), vehicle: methylcellulose (MC) 102 % of control | dose: 222.0 mg/kg/injection, schedule: Q01DX Z (ip), vehicle: methylcellulose (MC) 97 % of control | dose: 333.0 mg/kg/injection, schedule: Q01DX Z (ip), vehicle: methylcellulose (MC) 102 % of control

Cc1ccc(NSC(Cl)(Cl)Cl)cc1
inactive: dose: 50.0 mg/kg/injection, schedule: Q04DX002 (ip), vehicle: saline with Tween-80 101 % of control | [10] 106 % of control and 108 % of control | [11] 98 % of control and 123 % of control

CC(=O)Nc1ccc2c(ccc3cccc[n+]32)c1
inactive: dose: 10.0 mg/kg/injection, schedule: Q01DX001 (ip), vehicle: saline 93 % of control | dose: 20.0 mg/kg/injection, schedule: Q01DX001 (ip), vehicle: saline 98 % of control

CC1(C)c2ccccc2-c2nc3ccccc3nc2C1O (stereo not given)
inactive: [23] 94 % of control | [24] 97 % of control | [25] 103 % of control

CC(C)=CCN(CC=C(C)C)CCC(O)(Cc1ccccc1)c1ccccc1 (stereo not given)
inactive: [1] 88 % of control | [2] 109 % of control | [12] 97 % of control | [13] 90 % of control | [14] 95 % of control

C(=N\N=c1\[nH][nH]/c(=N/N=C/c2ccc(-c3ccccc3)cc2)c2ccccc12)/c1ccc(-c2ccccc2)cc1
inactive: [17] 110 % of control | [18] 98 % of control | [19] 95 % of control | [20] 98 % of control

Cc1ccc(S(C)=O)c(C)c1 (stereo not given)
inactive: [7] 97 % of control | [26] 96 % of control

COS(=O)(=O)c1ccc(Cl)c([N+](=O)[O-])c1
inactive: dose: 0.38 mg/kg/injection, schedule: Q01DX009 (ip), vehicle: saline 97 % of control | dose: 0.75 mg/kg/injection, schedule: Q01DX009 (ip), vehicle: saline 102 % of control | dose: 0.75 mg/kg/injection, schedule: Q04DX003 (ip), vehicle: saline with Tween-80 101 % of control | dose: 1.5 mg/kg/injection, schedule: Q01DX009 (ip), vehicle: saline 97 % of control | dose: 1.5 mg/kg/injection, schedule: Q04DX003 (ip), vehicle: saline with Tween-80 90 % of control

C=CCc1ccc(OC(=O)NC(C)C)c(OC)c1
inactive: [23] 89 % of control | [2] 97 % of control and 88 % of control | dose: 100.0 mg/kg/injection, schedule: Q04DX002 (ip), vehicle: Klucel (hydroxypropylcellulose) (HPC) 98 % of control and 100 % of control | [12] 93 % of control | [24] 101 % of control | [13] 111 % of control and 91 % of control | dose: 200.0 mg/kg/injection, schedule: Q04DX002 (ip), vehicle: Klucel (hydroxypropylcellulose) (HPC) 98 % of control and 112 % of control | [14] 97 % of control | [25] 100 % of control | [15] 88 % of control | dose: 400.0 mg/kg/injection, schedule: Q04DX002 (ip), vehicle: Klucel (hydroxypropylcellulose) (HPC) 112 % of control and 119 % of control | [16] 101 % of control

Cc1ccc(Cl)cc1NC(=O)N(C)C1CCCCC1
inactive: dose: 100.0 mg/kg/injection, schedule: Q01DX001 (ip), vehicle: saline with Tween-80 101 % of control | [9] 94 % of control and 120 % of control | [10] 104 % of control and 106 % of control | [3] 97 % of control | dose: 200.0 mg/kg/injection, schedule: Q01DX001 (ip), vehicle: saline with Tween-80 106 % of control | [21] 96 % of control and 113 % of control | [11] 98 % of control and 109 % of control | [4] 111 % of control | dose: 400.0 mg/kg/injection, schedule: Q01DX001 (ip), vehicle: saline with Tween-80 98 % of control | [22] 100 % of control and 110 % of control | dose: 400.0 mg/kg/injection, schedule: Q04DX002 (ip), vehicle: saline with Tween-80 95 % of control and 112 % of control | [5] 90 % of control

CC(=O)CC(=O)NC1CCCCC1
inactive: [9] 105 % of control | dose: 100.0 mg/kg/injection, schedule: Q04DX003 (ip), vehicle: saline with Tween-80 96 % of control | [21] 100 % of control | dose: 200.0 mg/kg/injection, schedule: Q04DX003 (ip), vehicle: saline with Tween-80 94 % of control | [22] 95 % of control | dose: 400.0 mg/kg/injection, schedule: Q04DX003 (ip), vehicle: saline with Tween-80 94 % of control

CCOC(=O)NCCN(C)C
inactive: [6] 105 % of control | [7] 102 % of control | [3] 99 % of control | [26] 108 % of control | [4] 102 % of control
